Test results reported in EP4620959A1, “CYCLIC COMPOUNDS USED AS MULTI-TARGET KINASE INHIBITORS AND PREPARATION METHOD THEREFOR” (Shanghai Institute of Organic Chemistry, Chinese Academy of …, priority 2022, dated 2024).

target: LRRK2 wt (Homo sapiens, UniProt Q5S007); assay: Kinase activity inhibition assay (ADP-Glo), LRRK2 wt; format: biochemical; details: ATP 20 µM, compound at 100 nM
Description: The kinase activity inhibition assay was performed by ICE Bioscience (Beijing) using ADP-Glo and HTRF methods.
Table 1.1-1 ADP-Glo Buffer
Table 1.2-1 ADP-Glo Kinase and Substrate Formulation
SD is the standard error, and AVE is the average value. Table 2-1 LRRK2 Activity Inhibition Test Results

Sequence of LRRK2 wt (Q5S007 whole entry): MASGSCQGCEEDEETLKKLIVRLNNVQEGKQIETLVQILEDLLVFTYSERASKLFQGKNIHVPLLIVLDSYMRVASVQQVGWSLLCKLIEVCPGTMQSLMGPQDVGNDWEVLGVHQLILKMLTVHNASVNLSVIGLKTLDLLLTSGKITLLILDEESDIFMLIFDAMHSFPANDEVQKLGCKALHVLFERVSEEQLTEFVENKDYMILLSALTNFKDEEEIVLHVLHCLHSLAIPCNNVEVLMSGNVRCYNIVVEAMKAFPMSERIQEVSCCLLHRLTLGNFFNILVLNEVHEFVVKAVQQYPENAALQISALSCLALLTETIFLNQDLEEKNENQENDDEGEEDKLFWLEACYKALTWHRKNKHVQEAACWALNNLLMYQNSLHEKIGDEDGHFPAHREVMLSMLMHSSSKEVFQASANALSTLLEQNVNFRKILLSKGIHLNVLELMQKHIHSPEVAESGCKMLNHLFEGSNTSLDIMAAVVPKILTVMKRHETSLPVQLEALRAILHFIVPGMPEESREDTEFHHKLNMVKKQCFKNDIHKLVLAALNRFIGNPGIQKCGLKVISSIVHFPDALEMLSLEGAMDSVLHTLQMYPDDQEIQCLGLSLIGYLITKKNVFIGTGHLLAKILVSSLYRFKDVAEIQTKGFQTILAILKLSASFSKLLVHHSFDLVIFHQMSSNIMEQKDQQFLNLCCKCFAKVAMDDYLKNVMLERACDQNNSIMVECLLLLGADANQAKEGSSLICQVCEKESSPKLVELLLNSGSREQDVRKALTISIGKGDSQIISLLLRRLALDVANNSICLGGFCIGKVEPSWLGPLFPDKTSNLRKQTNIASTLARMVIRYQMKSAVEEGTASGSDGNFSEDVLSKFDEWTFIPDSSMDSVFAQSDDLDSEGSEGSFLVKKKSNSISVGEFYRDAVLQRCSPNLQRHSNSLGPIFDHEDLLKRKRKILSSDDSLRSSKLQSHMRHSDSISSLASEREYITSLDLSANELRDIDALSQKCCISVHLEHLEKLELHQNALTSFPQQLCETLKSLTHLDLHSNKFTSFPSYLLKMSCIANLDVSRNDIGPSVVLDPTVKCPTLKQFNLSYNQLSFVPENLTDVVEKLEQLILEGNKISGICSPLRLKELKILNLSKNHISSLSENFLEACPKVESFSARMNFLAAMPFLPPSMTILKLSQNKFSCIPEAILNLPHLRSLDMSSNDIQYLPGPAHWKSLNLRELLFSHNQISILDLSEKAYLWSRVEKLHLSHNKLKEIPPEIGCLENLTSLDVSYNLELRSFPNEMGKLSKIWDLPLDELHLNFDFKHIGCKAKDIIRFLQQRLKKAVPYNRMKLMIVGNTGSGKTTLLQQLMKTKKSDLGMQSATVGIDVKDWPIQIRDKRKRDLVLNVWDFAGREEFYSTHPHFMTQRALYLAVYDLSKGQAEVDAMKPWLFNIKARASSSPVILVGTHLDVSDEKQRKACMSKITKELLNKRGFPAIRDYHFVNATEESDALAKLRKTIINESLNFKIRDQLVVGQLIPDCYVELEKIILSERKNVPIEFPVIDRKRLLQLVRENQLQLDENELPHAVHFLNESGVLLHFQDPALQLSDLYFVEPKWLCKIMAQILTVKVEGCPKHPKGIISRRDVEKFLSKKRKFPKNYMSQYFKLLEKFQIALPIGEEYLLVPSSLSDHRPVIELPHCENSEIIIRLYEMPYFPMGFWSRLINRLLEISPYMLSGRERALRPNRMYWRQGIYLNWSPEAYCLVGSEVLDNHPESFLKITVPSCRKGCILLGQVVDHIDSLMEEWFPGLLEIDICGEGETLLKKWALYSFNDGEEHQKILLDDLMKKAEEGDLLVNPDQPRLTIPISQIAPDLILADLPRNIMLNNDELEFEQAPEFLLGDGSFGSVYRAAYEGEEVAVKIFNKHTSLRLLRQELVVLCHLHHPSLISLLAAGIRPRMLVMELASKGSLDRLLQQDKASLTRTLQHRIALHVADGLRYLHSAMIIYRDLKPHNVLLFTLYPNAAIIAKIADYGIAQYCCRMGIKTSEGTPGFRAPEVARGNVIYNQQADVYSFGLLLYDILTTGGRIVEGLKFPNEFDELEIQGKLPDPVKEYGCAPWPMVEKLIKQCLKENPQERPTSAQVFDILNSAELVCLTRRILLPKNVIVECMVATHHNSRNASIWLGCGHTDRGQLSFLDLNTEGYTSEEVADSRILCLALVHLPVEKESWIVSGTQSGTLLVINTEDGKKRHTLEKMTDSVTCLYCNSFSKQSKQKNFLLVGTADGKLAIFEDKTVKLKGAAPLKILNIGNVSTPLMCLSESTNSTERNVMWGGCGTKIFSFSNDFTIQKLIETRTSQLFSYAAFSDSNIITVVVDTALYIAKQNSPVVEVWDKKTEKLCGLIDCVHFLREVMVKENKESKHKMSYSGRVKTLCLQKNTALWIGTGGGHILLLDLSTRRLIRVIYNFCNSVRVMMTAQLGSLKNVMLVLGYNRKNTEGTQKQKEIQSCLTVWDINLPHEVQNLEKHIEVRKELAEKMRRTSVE

SMILES	LRRK2 wt inhibition rate at 100 nM [%@100 nM]
Cc1nn2cc1Nc1ncc(C(F)(F)F)c(n1)NC1CCCC(C1)NC(=O)C2(C)C (stereo not shown) [Example T-42, (5^3R,E)-1^3,8,8-Trimethyl-3^5-(trifluoromethyl)-1^1H-2,4,6-triaza-3(2,4)-pyrimidina-1(4,1)-pyrazola-5(1,3)-cyclohexacyclooctan-7-one]	42.08

same assay, conditions: read-out: LRRK2 wt inhibition rate at 100 nM, ATP 20 µM, compound at 100 nM

SMILES	inhibition at 0.1 µM [%]
Cc1nn2cc1Nc1ncc(C(F)(F)F)c(n1)NCCCOCCNC(=O)C2(C)C [Example T-2, (E)-3^3,4,4-Trimethyl-1^5-(trifluoromethyl)-3^1H-9-oxa-2,6,13-triaza-1(2,4)-pyrimidina-3(4,1)-pyrazolacyclotridecan-5-one]	55
Cc1nn2cc1Nc1ncc3[nH]nc(c3n1)CCCNC(=O)C2(C)C [Example T-9, (E)-3^3,4,4-Trimethyl-1^1H,3^1H-2,6-diaza-1(5,3)pyrazolo[4,3-d]pyrimidine-3(4,1)-pyrazolacyclononan-5-one]	-0.5
Cc1nn2cc1Nc1ncc(C(F)(F)F)c(n1)NCCCn1cc(nn1)C2(C)C [Example T-16, (3^4E,5^4Z)-3^3,4,4-Trimethyl-1^5-(trifluoromethyl)-3^1H,5^1H-2,9-diaza-1(2,4)-pyrimidina-5(4,1)-triazole-3(4,1)-pyrazolacyclononane]	86.1
Cc1nn2cc1Nc1ncc(C(F)(F)F)c(n1)NCCCn1ncc(n1)C2(C)C [Example T-17, (3^4E,5^3Z)-3^3,4,4-Trimethyl-1^5-(trifluoromethyl)-3^1H,5^2H-2,9-diaza-1(2,4)-pyrimidina-5(4,2)-triazole-3(4,1)-pyrazolacyclononane]	96.9
Cc1nn2cc1Nc1ncc3[nH]cc(c3n1)CCCNC(=O)C2(C)C [Example T-18, (E)-3^3,4,4-Trimethyl-1^5H,3^1H-2,6-diaza-1(2,7)-pyrrolo[3,2-d]pyrimidine-3(4,1)-pyrazolacyclononan-5-one]	6.61
Cc1nn2cc1Nc1ncc3c(n1)c(nn3C)CCCNC(=O)C2(C)C [Example T-19, (E)-1^1,3^3,4,4-Tetramethyl-1^1H,3^1H-2,6-diaza-1(5,3)-pyrazolo[4,3-d]pyrimidine-3(4,1)-pyrazinacyclononan-5-one]	11.6
Cc1nn2cc1Nc1ncc3nn(C)c(c3n1)CCCNC(=O)C2(C)C [Example T-20, (1^3E,1^4Z,3^4E)-1^2,3^3,4,4-Tetramethyl-1^2H,3^1H-2,6-diaza-1(5,3)-pyrazolo[4,3-d]pyrimidine-3(4,1)-pyrazinacyclononan-5-one]	0.84
Cc1nn2cc1Nc1ncc3c(n1)c(cn3C)CCCNC(=O)C2(C)C [Example T-21, (E)-1^5,3^3,4,4-Tetramethyl-1^5H,3^1H-2,6-diaza-1(2,7)-pyrrolo[3,2-d]pyrimidine-3(4,1)-pyrazolacyclononan-5-one]	60.1
Cc1nn2cc1Nc1ncc3c(Cl)cn(c3n1)CCCCNC(=O)C2(C)C [Example T-22, (E)-1^5-Chloro-3^3,4,4-trimethyl-1^7H,3^1H-2,6-diaza-1(2,7)-pyrrolo[2,3-d]pyrimidine-3(4,1)-pyrazolacyclodecan-5-one]	92.5
Cc1nn2cc1Nc1ncc3c(Cl)cn(c3n1)CCCCN(C)C(=O)C2(C)C [Example T-23, (E)-1^5-Chloro-3^3,4,4,6-tetramethyl-1^7H,3^1H-2,6-diaza-1(2,7)-pyrrolo[2,3-d]pyrimidine-3(4,1)-pyrazolacyclodecan-5-one]	19.1
Cc1nn2cc1Nc1ncc3ccc(n3n1)CCCNC(=O)C2(C)C [Example T-24, (1^1Z,3^4E)-3^3,4,4-Trimethyl-3^1H-2,6-diaza-1(2,7)-pyrrolo[2,1-f][1,2,4]triazine-3(4,1)-pyrazolacyclononan-5-one]	57.3
Cc1nn2cc1Nc1ncc3c(Cl)cc(n3n1)CCCCNC(=O)C2(C)C [Example T-26, (1^1Z,3^4E)-1^5-Chloro-3^3,4,4-trimethyl-3^1H-2,6-diaza-1(2,7)-pyrrolo[2,1-f][1,2,4]triazine-3(4,1)-pyrazolacyclodecan-5-one]	98.4
CC1(C)C(=O)NCCCc2cc(Cl)c3cnc(nn23)Nc2cn1nc2Cl [Example T-27, (1^1Z,3^4E)-1^53^3-Dichloro-4,4-dimethyl-3^1H-2,6-diaza-1(2,7)-pyrrolo[2,1-f][1,2,4]triazine-3(4,1)-pyrazolacyclononan-5-one]	88
CC1(C)C(=O)NCCCc2cc(Cl)c3cnc(nn23)Nc2cn1nc2C1CC1 [Example T-28, (1^1Z,3^4E)-1^5-Chloro-3^3-cyclopropyl-4,4-dimethyl-3^1H-2,6-diaza-1(2,7)-pyrrolo[2,1-f][1,2,4]triazine-3(4,1)-pyrazolacyclononan-5-one]	98.3
Cc1nn2cc1Nc1ncc3c(C(F)(F)F)cc(n3n1)CCCNC(=O)C2(C)C [Example T-29, (1^1Z,3^4E)-3^3,4,4-Trimethyl-1^5-(trifluoromethyl)-3^1H-2,6-diaza-1(2,7)-pyrrolo[2,1-f][1,2,4]triazine-3(4,1)-pyrazolacyclononan-5-one]	95.6
Cc1nn2cc1Nc1ncc3c(C#N)cc(n3n1)CCCNC(=O)C2(C)C [Example T-30, (1^1Z,3^4E)-3^3,4,4-Trimethyl-5-oxo-3^1H-2,6-diaza-1(2,7)-pyrrolo[2,1-f][1,2,4]triazine-3(4,1)-pyrazolacyclononan-1^5-carbonitrile]	61.3
Cc1nn2cc1Nc1ncc(C(F)(F)F)c(n1)N(C)CCCN(C)C(=O)C2(C)C [Example T-31, (E)-3^3,4,4,6,10-Pentamethyl-1^5-(trifluoromethyl)-3^1H-2,6,10-triaza-1(2,4)-pyrimidina--3(4,1)-pyrazolacyclodecan-5-one]	8.85
Cc1nn2cc1Nc1ncc(C(F)(F)F)c(n1)N(C)CCCNC(=O)C2(C)C [Example T-32, (E)-3^3,4,4,10-Tetramethyl-1^5-(trifluoromethyl)-3^1H-2,6,10-triaza-1(2,4)-pyrimidina-3(4,1)-pyrazolacyclodecan-5-one]	91.6
Cc1nn2cc1Nc1ncc(C(F)(F)F)c(n1)NCCCN(C)C(=O)C2(C)C [Example T-33, (E)-3^3,4,4,6-Tetramethyl-1^5-(trifluoromethyl)-3^1H-2,6,10-triaza-1(2,4)-pyrimidina-3(4,1)-pyrazolacyclodecan-5-one]	2.45
Cc1nn2cc1Nc1ncc(C(F)(F)F)c(n1)NCCCN(C)CC2(C)C [Example T-34, (E)-3^3,4,4,6-Tetramethyl-1^5-(trifluoromethyl)-3^1H-2,6,10-triaza-1(2,4)-pyrimidina-3(4,1)-pyrazolacyclodecane]	-12.7
Cc1nn2cc1Nc1ncc(C(F)(F)F)c(n1)NCCn1cc(nn1)CC2(C)C [Example T-35, (3^4E,6^4Z)-3^3,4,4-Trimethyl-1^5-(trifluoromethyl)-3^1H,6^1H-2,9-diaza-1(2,4)-pyrimidina-6(4,1)-triazole-3(4,1)-pyrazolacyclononane]	9.41
Cc1nn2cc1Nc1ncc(C(F)(F)F)c(n1)NCCn1ncc(n1)CC2(C)C [Example T-36, (3^4E,6^3Z)-3^3,4,4-Trimethyl-1^5-(trifluoromethyl)-3^1H,6^2H-2,9-diaza-1(2,4)-pyrimidina-6(4,2)-triazole-3(4,1)-pyrazolacyclononane]	28.9
Cc1nn2cc1Nc1ncc(C(F)(F)F)c(n1)NCCCOC(=O)C2(C)C [Example T-37, (E)-3^3,4,4-Trimethyl-1^5-(trifluoromethyl)-3^1H-6-oxa-2,10-diaza-1(2,4)-pyrimidina-3(4,1)-pyrazolacyclodecan-5-one]	83.4
Cc1nn2cc1Nc1ncc(C(F)(F)F)c(n1)NCCC(C)NC(=O)C2(C)C (stereo not shown) [Example T-38, (E)-3^3,4,4,7-Tetramethyl-1^5-(trifluoromethyl)-3^1H-2,6,10-triaza-1(2,4)-pyrimidina-3(4,1)-pyrazolacyclodecan-5-one]	37.7
Cc1nn2cc1Nc1ncc(C(F)(F)F)c(n1)NCCC(C)(C)NC(=O)C2(C)C [Example T-39, (E)-3^3,4,4,7,7-Pentamethyl-1^5-(trifluoromethyl)-3^1H-2,6,10-triaza-1(2,4)-pyrimidina-3(4,1)-pyrazolacyclodecan-5-one]	28.9
Cc1nn2cc1Nc1ncc(C(F)(F)F)c(n1)NC/C=C/CNC(=O)C2(C)C [Example T-40, (3^4E,8E)-3^3,4,4-Trimethyl-1^5-(trifluoromethyl)-3^1H-2,6,11-triaza-1(2,4)-pyrimidina-3(4,1)-pyrazolylundecapentaene-5-one]	56.1
Cc1nn2cc1Nc1ncc(C(F)(F)F)c(n1)N[C@H]1CC[C@H](CC1)NC(=O)C2(C)C [Example T-41, (5^1s,5^4s,E)-1^3,8,8-Trimethyl-3^5-(trifluoromethyl)-1^1H-2,4,6-triaza-3(2,4)-pyrimidina-1(4,1)-pyrazola-5(1,4)-cyclohexacyclooctan-7-one]	20.8
Cc1nn2cc1Nc1ncc(C(F)(F)F)c(n1)NCC(F)(F)COC(=O)C2(C)C [Example T-43, (E)-8,8-Difluoro-3^3,4,4-trimethyl-1^5-(trifluoromethyl)-3^1H-6-oxa-2,10-diaza-1(2,4)-pyrimidina-3(4,1)-pyrazolacyclodecan-5-one]	64.6
Cc1nn2cc1Nc1ncc(C(F)(F)F)c(n1)NCC1(CC1)CNC(=O)C2(C)C [Example T-44, (E)-3',4',4'-Trimethyl-5'-(trifluoromethyl)spiro[cyclopropane-8'-2,6,10-triaza-1(2,4)-pyrimidina-3(4,1)-pyrazolacyclodecan]-5'-one]	56.8
Cc1nn2cc1Nc1ncc(C(F)(F)F)c(n1)NC(C)(C)CCNC(=O)C2(C)C [Example T-45, (E)-3^3,4,4,9,9-Pentamethyl-1^5-(trifluoromethyl)-3^1H-2,6,10-triaza-1(2,4)-pyrimidina-3(4,1)-pyrazolacyclodecan-5-one]	-1.97
